{
  "source": "paper PMC11696429",
  "about": "(ACS Omega, 2024)",
  "format_in_all_cases": "binding",
  "key": {"[1]": {"biological_target": "T1, integrin αvβ3 (Homo sapiens, UniProt P05106+P06756)", "conditions": "for IC50: IC50 (competitive displacement), day 7, competitor [^125I]I-echistatin"}, "[2]": {"biological_target": "T1, integrin αvβ3"}, "[3]": {"biological_target": "T1, integrin αvβ3", "remark": "listed apart in the source"}},
  "note": "Where two headings read alike, the source gives them in different places.",
  "data": [
    {"smiles": "N=C(N)NCCC[C@@H]1NC(=O)[C@H](CCCCNC(=O)CCOCCOCCOCCOCCOCCOCCNC(=O)CC[C@H](C(=O)O)N2CCN(CC(=O)O)CCN(CC(=O)O)CC2)NC(=O)[C@@H](Cc2ccccc2)NC(=O)[C@H](CC(=O)O)NC(=O)CNC1=O", "note": "[NODAGA-PEG5-c(RGDfK), NODAGA-PEG5-c(Arg-Gly-Asp-D-Phe-Lys)]", "values": [
      {"measurement": "IC50", "setting": "[1]; U87MG spheroids generated with collagen-1 supplementation", "value": "20.5 ± 4.41", "unit": "µM"},
      {"measurement": "IC50", "setting": "[1]; U87MG spheroids generated without supplementation", "value": "16.5 ± 2.88", "unit": "µM"},
      {"measurement": "reduced interaction in 3D spheroids compared to 2D monolayer (fold)", "setting": "[1]; IC50 in 3D U87MG spheroids vs 2D monolayer cell system", "value": "5–7 fold"},
      {"measurement": "IC50", "setting": "[2]", "value": "3.08 ± 0.12", "unit": "µM"},
      {"measurement": "IC50", "setting": "[3]", "value": "10.4 ± 0.89", "unit": "µM"},
      {"measurement": "change of IC50 value by BME", "setting": "[3]; 2D monolayer with BME vs without BME supplementation", "value": "triplication"}
    ]}
  ]
}
